For the test, the target named is T1, ΔF508-CFTR (Homo sapiens, UniProt P13569, DEL508-508).
T1 construct: expressed in transfected cells
The test is described as follows: Membrane potential optical assay (FRET/VIPR), identification of correction compounds. In kind it is cell-based. The following applies: for Emax: relative efficacy. The method in brief: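 NIH3T3 cells stably expressing ΔF508-CFTR incubated 16 hrs at 37° C in serum-free medium with test compound; 27° C incubation as positive control. CFTR then activated with 10 μM forskolin plus 20 μM genistein in Cl^−-free medium; depolarization read by DiSBAC2(3)/CC2-DMPE FRET on VIPR.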

pEC50: −log10 of the molar value. A value given as a limit tells only on which side of the number the result lay.

The values that follow come from US8642609B2, “Modulators of ATP-binding cassette transporters” (Vertex Pharmaceuticals Incorporated, priority 2003, dated 2014).

T1 sequence (P13569 with tags, fused parts or gaps DEL508-508): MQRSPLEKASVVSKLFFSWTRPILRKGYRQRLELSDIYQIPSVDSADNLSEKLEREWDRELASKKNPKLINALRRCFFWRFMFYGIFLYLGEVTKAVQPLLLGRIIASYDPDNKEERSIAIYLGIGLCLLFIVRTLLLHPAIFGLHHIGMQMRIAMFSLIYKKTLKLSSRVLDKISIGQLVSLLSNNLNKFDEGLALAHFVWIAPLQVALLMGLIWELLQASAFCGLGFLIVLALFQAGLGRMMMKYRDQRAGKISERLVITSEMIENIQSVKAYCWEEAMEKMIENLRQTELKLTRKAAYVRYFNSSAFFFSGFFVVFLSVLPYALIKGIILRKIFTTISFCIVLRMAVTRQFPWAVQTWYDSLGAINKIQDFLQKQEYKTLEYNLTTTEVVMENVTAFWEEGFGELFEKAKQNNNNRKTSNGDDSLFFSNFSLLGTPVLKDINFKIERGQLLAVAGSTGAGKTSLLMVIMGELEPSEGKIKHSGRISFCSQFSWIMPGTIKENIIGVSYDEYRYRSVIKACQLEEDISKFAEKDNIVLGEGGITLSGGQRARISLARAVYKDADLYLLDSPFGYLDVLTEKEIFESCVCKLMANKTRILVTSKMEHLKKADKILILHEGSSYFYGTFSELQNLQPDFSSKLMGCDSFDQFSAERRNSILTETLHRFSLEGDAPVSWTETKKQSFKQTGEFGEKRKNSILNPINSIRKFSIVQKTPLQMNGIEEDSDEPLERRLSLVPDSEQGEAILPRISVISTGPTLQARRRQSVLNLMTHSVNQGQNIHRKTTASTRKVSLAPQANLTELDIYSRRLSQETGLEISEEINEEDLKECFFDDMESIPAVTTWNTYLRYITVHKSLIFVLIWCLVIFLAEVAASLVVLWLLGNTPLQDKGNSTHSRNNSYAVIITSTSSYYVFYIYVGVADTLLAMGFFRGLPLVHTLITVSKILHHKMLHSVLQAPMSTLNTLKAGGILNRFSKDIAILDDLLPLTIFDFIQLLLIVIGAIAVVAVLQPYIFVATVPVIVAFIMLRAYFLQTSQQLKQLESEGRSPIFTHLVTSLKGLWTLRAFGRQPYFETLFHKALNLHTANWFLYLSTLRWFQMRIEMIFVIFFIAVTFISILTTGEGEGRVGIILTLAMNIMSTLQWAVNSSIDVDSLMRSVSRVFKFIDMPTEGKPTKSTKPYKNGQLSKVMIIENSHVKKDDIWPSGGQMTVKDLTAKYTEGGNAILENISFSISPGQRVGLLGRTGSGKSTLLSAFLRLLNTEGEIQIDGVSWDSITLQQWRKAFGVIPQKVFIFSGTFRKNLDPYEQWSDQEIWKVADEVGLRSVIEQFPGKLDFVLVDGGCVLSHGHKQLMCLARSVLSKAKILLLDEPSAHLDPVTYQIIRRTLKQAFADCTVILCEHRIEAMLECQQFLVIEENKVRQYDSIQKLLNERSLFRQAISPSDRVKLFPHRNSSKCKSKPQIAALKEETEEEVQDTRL

On to `CCN(CC)c1nc(C(C)N2CCN(S(=O)(=O)c3ccc(OC)cc3)CC2)nc2ccccc12` (stereo not shown) [compound 195], for which the pEC50 was 4.60 to 5.00 and the maximal effect (Emax) lay within 25 to 100%.
Take `COc1ccc(S(=O)(=O)N2CCN(C(C)c3nc(N4CCOCC4)c4ccccc4n3)CC2)cc1` (stereo not shown) [compound 196]: the pEC50 is 4.22 to 4.60 and the Emax was in the range of 25 to 100%.
Take `COc1ccc(S(=O)(=O)NCCN(C(C)c2nc3ccccc3c(=O)n2C)S(=O)(=O)c2ccc(OC)cc2)cc1` (stereo not shown) [compound 197]: the pEC50 is 4.22 to 4.60 and the Emax lay in the range of 25 to 100%.
On the same counts, the results for `CC(c1nc2ccccc2c(=O)n1C)N(CCNS(=O)(=O)c1ccc(Cl)cc1)S(=O)(=O)c1ccc(Cl)cc1` (stereo not shown) [compound 198] are 4.22 to 4.60 and less than 25%.
In the same order, the values of `CC(c1nc2ccccc2c(=O)n1C)N(CCNS(=O)(=O)c1ccc(Br)cc1)S(=O)(=O)c1ccc(Br)cc1` (stereo not shown) [compound 199] are 4.22 to 4.60 and less than 25%.
Regarding `COc1ccc(S(=O)(=O)N(C)CCN(C(C)c2nc3ccccc3c(=O)n2C)S(=O)(=O)c2ccc(OC)cc2)cc1` (stereo not shown) [compound 200], the negative-log EC50 (pEC50) is 4.22 to 4.60 and the Emax was less than 25%.
In the same order, the values of `CC(c1nc2ccccc2c(=O)n1C)N(CCN(C)S(=O)(=O)c1ccc(Cl)cc1)S(=O)(=O)c1ccc(Cl)cc1` (stereo not shown) [compound 201] are 4.22 to 4.60 and less than 25%.
Turning to `CC(c1nc2ccccc2c(=O)n1C)N(CCN(C)S(=O)(=O)c1ccc(Br)cc1)S(=O)(=O)c1ccc(Br)cc1` (stereo not shown) [compound 202], the negative-log EC50 (pEC50) was 4.22 to 4.60 and the Emax was less than 25%.
On the same counts, the results for `COc1ccc(S(=O)(=O)N(C[C@@H]2CCCCN2S(=O)(=O)c2ccc(OC)cc2)C(C)c2nc3ccccc3c(=O)n2C)cc1` (stereo partly shown) [compound 203] are 4.22 to 4.60 and less than 25%.
On the same counts, the results for `CC(c1nc2ccccc2c(=O)n1C)N(C[C@@H]1CCCCN1S(=O)(=O)c1ccc(Br)cc1)S(=O)(=O)c1ccc(Br)cc1` (stereo partly shown) [compound 204] are 4.22 to 4.60 and less than 25%.
In the same order, the values of `COc1ccc(S(=O)(=O)NCCCN(C(C)c2nc3ccccc3c(=O)n2C)S(=O)(=O)c2ccc(OC)cc2)cc1` (stereo not shown) [compound 205] are 4.22 to 4.60 and less than 25%.
For the compound `CC(c1nc2ccccc2c(=O)n1C)N(CCCNS(=O)(=O)c1ccc(Cl)cc1)S(=O)(=O)c1ccc(Cl)cc1` (stereo not shown) [compound 206], the pEC50 is 4.22 to 4.60 and the Emax is less than 25%.
On the same counts, the results for `CC(c1nc2ccccc2c(=O)n1C)N(CCCNS(=O)(=O)c1ccc(Br)cc1)S(=O)(=O)c1ccc(Br)cc1` (stereo not shown) [compound 207] are greater than 5.00 and 25 to 100%.
Turning to `COc1ccc(S(=O)(=O)N2CCC(NC(C)c3nc4ccccc4c(=O)n3C)CC2)cc1` (stereo not shown) [compound 208], the pEC50 is 4.22 to 4.60 and the Emax was in the range of 25 to 100%.
`CC(NC1CCN(S(=O)(=O)c2ccc(Cl)cc2)CC1)c1nc2ccccc2c(=O)n1C` (stereo not shown) [compound 209]: the pEC50 was 4.60 to 5.00 and the Emax was in the range of 25 to 100%.
As to `CC(NC1CCN(S(=O)(=O)c2ccc(Br)cc2)CC1)c1nc2ccccc2c(=O)n1C` (stereo not shown) [compound 210], the negative logarithm of the EC50 (pEC50) is greater than 5.00 and the Emax is greater than 100%.
On the same counts, the results for `COc1ccc(S(=O)(=O)N(C)CCNC(C)c2nc3ccccc3c(=O)n2C)cc1` (stereo not shown) [compound 211] are 4.22 to 4.60 and less than 25%.
Consider `CC(NCCN(C)S(=O)(=O)c1ccc(Cl)cc1)c1nc2ccccc2c(=O)n1C` (stereo not shown) [compound 212], for which the pEC50 is 4.22 to 4.60 and the maximal response (Emax) is less than 25%.
On the same counts, the results for `CC(NCCN(C)S(=O)(=O)c1ccc(Br)cc1)c1nc2ccccc2c(=O)n1C` (stereo not shown) [compound 213] are 4.22 to 4.60 and less than 25%.
In the same order, the values of `CC(NC[C@@H]1CCCCN1S(=O)(=O)c1ccc(Cl)cc1)c1nc2ccccc2c(=O)n1C` (stereo partly shown) [compound 214] are 4.22 to 4.60 and less than 25%.

What is called pEC50 is the EC50 on a negative log10 scale, so that one unit is a factor of ten. As a reminder, the Emax is the size of the effect at its maximum, as opposed to the concentration needed.
